Test results: ChEMBL document CHEMBL1129269, “1-aryl-4-[(1-tetralinyl)alkyl]piperazines: alkylamido and alkylamino derivatives. Synthesis, 5-HT1A receptor affinity, and selectivity. 3” (J Med Chem, 1996)

Tests used:
[1] = biological target: T1, Adrenergic receptor alpha-2 (Rattus norvegicus, UniProt P22086+P19328+P22909); assay: Binding affinity against Alpha-2 adrenergic receptor in rat brain membrane using [3H]yohimbine as radioligand; format: cell membranes
T1 sequence (P22086 whole entry): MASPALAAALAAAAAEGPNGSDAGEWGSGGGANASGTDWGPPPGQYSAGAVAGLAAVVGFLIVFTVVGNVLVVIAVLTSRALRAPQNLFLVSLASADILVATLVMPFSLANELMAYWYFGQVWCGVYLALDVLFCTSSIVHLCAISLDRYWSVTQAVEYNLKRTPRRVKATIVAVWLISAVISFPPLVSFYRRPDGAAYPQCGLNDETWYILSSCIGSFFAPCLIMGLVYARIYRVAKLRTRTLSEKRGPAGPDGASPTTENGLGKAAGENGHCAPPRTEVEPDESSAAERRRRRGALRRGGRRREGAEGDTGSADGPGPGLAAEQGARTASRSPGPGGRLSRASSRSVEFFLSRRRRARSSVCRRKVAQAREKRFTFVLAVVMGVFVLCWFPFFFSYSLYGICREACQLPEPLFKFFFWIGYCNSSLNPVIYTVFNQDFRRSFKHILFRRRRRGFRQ
T1 sequence (P19328 whole entry): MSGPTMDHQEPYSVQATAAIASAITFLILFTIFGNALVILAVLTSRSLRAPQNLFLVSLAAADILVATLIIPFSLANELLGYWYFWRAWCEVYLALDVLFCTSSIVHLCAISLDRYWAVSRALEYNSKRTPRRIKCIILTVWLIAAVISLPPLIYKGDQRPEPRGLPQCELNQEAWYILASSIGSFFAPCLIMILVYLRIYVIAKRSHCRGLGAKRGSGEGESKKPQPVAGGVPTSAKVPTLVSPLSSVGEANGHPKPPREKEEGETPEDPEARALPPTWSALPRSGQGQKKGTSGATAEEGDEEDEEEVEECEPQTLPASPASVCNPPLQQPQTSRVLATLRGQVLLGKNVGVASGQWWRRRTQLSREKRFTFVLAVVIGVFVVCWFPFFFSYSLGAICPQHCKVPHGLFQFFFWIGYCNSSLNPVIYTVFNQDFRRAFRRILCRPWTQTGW
T1 sequence (P22909 whole entry): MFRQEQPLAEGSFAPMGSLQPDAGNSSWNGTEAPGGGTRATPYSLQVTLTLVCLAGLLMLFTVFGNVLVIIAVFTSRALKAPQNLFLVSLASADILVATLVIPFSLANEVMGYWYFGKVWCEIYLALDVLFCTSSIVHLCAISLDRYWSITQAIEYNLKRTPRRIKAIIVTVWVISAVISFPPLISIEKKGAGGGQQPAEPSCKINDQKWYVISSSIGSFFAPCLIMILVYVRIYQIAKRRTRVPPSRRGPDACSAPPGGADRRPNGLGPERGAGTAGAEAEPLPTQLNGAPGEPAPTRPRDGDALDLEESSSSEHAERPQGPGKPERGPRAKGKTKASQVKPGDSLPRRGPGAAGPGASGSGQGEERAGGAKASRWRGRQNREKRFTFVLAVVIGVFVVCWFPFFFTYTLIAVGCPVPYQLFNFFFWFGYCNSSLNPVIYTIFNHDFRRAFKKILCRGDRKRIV

[2] = biological target: T2, Adrenergic receptor alpha-1 (Rattus norvegicus, UniProt P15823+P23944+P43140); assay: Binding affinity against Alpha-1 adrenergic receptor in rat brain membrane using [3H]prazosin as radioligand; format: cell membranes
T2 sequence (P15823 whole entry): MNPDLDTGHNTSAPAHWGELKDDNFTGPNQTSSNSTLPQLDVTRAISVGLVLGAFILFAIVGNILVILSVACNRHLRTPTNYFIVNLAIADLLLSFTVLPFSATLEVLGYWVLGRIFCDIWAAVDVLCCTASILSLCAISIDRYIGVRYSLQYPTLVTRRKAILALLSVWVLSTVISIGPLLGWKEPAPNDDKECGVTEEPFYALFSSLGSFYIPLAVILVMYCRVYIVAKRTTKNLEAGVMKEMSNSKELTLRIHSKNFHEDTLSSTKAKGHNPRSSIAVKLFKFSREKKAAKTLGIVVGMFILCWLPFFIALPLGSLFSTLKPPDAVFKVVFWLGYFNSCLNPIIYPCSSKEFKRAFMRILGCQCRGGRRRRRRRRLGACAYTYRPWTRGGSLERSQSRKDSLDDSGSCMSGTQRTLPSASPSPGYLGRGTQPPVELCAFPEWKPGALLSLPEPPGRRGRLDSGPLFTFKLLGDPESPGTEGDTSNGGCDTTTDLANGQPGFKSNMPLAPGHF
T2 sequence (P23944 whole entry): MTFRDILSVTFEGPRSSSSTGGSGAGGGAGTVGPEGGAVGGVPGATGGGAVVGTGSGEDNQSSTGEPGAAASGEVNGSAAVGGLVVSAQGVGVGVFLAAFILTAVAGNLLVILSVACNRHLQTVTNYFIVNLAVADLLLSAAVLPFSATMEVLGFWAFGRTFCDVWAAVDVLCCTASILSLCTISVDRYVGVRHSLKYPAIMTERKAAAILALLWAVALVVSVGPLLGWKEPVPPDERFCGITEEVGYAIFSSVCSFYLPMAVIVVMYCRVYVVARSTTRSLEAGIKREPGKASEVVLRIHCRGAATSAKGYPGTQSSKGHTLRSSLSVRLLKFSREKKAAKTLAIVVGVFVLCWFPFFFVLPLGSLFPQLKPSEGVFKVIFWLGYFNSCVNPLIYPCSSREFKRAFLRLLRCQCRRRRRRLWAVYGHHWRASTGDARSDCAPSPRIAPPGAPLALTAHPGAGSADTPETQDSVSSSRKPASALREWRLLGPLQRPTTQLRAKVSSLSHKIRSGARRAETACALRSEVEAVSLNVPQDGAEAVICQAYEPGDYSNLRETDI
T2 sequence (P43140 whole entry): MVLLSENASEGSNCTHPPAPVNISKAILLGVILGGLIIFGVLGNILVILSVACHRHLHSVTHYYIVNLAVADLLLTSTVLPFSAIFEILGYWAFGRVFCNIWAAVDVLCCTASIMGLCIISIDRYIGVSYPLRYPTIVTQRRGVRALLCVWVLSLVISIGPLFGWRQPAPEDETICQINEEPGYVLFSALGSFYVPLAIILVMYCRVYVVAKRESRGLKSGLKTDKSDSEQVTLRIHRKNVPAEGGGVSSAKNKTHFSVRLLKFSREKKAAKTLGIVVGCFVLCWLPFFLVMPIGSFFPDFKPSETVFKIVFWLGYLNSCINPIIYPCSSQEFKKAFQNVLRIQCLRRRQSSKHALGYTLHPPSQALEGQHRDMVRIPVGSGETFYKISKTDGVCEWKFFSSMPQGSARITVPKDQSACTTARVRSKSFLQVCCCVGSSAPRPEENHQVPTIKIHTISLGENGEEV

D(2) dopamine receptor [3] = biological target: T3, D(2) dopamine receptor (Rattus norvegicus, UniProt P61169); assay: Binding affinity against Dopamine receptor D2 in rat striatal membrane using [3H]spiroperidol as radioligand; format: cell membranes, Striatum
T3 sequence (P61169 whole entry): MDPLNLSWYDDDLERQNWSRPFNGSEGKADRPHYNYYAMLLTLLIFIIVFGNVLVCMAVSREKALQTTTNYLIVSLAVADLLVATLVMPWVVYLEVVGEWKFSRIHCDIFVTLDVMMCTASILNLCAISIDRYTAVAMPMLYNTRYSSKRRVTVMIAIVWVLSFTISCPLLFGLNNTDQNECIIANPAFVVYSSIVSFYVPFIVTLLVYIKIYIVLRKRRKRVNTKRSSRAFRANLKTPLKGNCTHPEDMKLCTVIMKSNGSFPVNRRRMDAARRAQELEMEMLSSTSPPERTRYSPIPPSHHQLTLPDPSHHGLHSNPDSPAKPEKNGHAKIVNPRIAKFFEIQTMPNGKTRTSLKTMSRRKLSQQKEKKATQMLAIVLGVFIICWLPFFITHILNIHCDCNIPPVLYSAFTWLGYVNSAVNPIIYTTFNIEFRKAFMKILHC

[4] = biological target: Serotonin 2 (5-HT2) receptor (Rattus norvegicus, UniProt P30994+P08909+P14842); assay: Binding affinity against 5-hydroxytryptamine 2 receptor in rat brain using [3H]ketanserin as radioligand; format: tissue-based
[5] = biological target: T4, 5-hydroxytryptamine receptor 1A (Rattus norvegicus, UniProt P19327); assay: Binding affinity against 5-hydroxytryptamine 1A receptor in rat hippocampus membranes using [3H]8-OH-DPAT as radioligand; format: cell membranes, Membrane
T4 sequence (P19327 whole entry): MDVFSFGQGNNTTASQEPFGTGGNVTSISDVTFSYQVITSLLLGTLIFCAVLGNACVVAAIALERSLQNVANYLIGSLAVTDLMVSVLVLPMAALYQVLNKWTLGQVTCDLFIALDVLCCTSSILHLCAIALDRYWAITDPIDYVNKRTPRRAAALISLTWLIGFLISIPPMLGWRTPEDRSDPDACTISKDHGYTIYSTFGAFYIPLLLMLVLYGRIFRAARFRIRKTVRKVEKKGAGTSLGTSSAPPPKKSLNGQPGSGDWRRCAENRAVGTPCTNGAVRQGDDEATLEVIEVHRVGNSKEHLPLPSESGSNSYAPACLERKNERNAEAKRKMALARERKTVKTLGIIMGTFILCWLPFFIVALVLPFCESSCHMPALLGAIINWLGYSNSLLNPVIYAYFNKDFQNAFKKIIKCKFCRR

[6] = biological target: T4, 5-hydroxytryptamine receptor 1A; assay: Binding affinity against serotonin 5-hydroxytryptamine 1A receptor in rat hippocampus membrane using [3H]8-OH-DPAT as radioligand; format: cell membranes
D(2) dopamine receptor [7] = biological target: T3, D(2) dopamine receptor; assay: biochemical
Description: Binding affinity to rat Dopamine receptor D2 expressed in CHO cells was determined using [125 I ] iodosulpride as radioligand

IC50 [1] [nM] | IC50 [2] [nM] | IC50 (D(2) dopamine receptor [3]) [nM] | IC50 [4] [nM] | IC50 [5] [nM] | IC50 [6] [nM] | IC50 (D(2) dopamine receptor [7]) [nM] | Structure (SMILES)
458 | 881 | 1060 | 3300 | 10 | – | – | COc1ccccc1N1CCN(CCCNC2CCCc3c(OC)cccc32)CC1 (stereo not drawn)
7220 | 838 | 2440 | 1270 | – | 173 | – | COc1cccc2c1CCCC2C(=O)NCCN1CCN(c2ccccn2)CC1 (stereo not drawn)
1420 | 1150 | 1100 | 1900 | 116 | – | – | COc1cccc2c1CCCC2CNCCN1CCN(c2ccccc2)CC1 (stereo not drawn)
95 | 725 | 1850 | 9140 | – | – | – | COc1cccc2c1CCCC2NCCN1CCN(c2ccccn2)CC1 (stereo not drawn)
2680 | 313 | 2970 | 1200 | 311 | – | – | COc1cccc2c1CCCC2NC(=O)CCN1CCN(c2ccccc2)CC1 (stereo not drawn)
144 | 159 | 594 | 134 | 134 | – | – | COc1cccc2c1CCCC2C(=O)N(C)CCCN1CCN(c2ccccc2)CC1 (stereo not drawn)
> 10000 | 5980 | > 10000 | > 10000 | – | – | – | COc1cccc2c1CCCC2NC(=O)CN1CCN(c2ccccc2)CC1 (stereo not drawn)
564 | 84 | 116 | 2040 | – | 16 | – | COc1ccccc1N1CCN(CCCNC(=O)C2CCCc3c(OC)cccc32)CC1 (stereo not drawn)
186 | 19 | 783 | 349 | – | 63 | – | COc1cccc2c1CCCC2C(=O)NCCCN1CCN(c2ccccc2)CC1 (stereo not drawn)
1380 | – | 448 | 1710 | – | 35 | – | COc1ccccc1N1CCN(CCNC(=O)C2CCCc3c(OC)cccc32)CC1 (stereo not drawn)
17 | 6.5 | – | 330 | – | 0.77 | – | COc1ccccc1N1CCN(CCCC2CCCc3c(OC)cccc32)CC1 (stereo not drawn)
1250 | 153 | 761 | 841 | – | – | – | COc1ccccc1N1CCN(CCC(=O)NC2CCCc3c(OC)cccc32)CC1 (stereo not drawn)
1850 | 427 | 4040 | 1560 | – | 416 | – | COc1cccc2c1CCCC2C(=O)NCCN1CCN(c2ccccc2)CC1 (stereo not drawn)
183 | 297 | 332 | 1070 | 307 | – | – | COc1ccccc1N1CCN(CCN(C)C(=O)C2CCCc3c(OC)cccc32)CC1 (stereo not drawn)
260 | 43 | – | 230 | – | 0.5 | 110 | COc1cccc2c1CCCC2CCCN1CCN(c2ccccc2)CC1 (stereo not drawn)
1330 | 534 | 1900 | 726 | 135 | – | – | COc1cccc2c1CCCC2NC(=O)CCN1CCN(c2ccccn2)CC1 (stereo not drawn)
746 | 327 | 819 | 428 | 95 | – | – | COc1cccc2c1CCCC2C(=O)NCCCN1CCN(c2ccccn2)CC1 (stereo not drawn)
788 | 626 | 2160 | 2690 | 53 | – | – | COc1cccc2c1CCCC2NCCCN1CCN(c2ccccc2)CC1 (stereo not drawn)
310 | 790 | 1200 | 2720 | 92 | – | – | COc1cccc2c1CCCC2NCCN1CCN(c2ccccc2)CC1 (stereo not drawn)
250 | 510 | 882 | 848 | 271 | – | – | COc1cccc2c1CCCC2C(=O)N(C)CCN1CCN(c2ccccc2)CC1 (stereo not drawn)
112 | 887 | 73 | 1740 | 8.7 | – | – | COc1ccccc1N1CCN(CCN(C)C2CCCc3c(OC)cccc32)CC1 (stereo not drawn)
48 | 66 | – | 250 | – | 0.54 | 140 | COc1cccc2c1CCCC2CCCN1CCN(c2ccccn2)CC1 (stereo not drawn)

Structure (SMILES) | IC50 [1] [nM] | IC50 [2] [nM] | IC50 (D(2) dopamine receptor [3]) [nM] | IC50 [4] [nM] | IC50 [5] [nM] | IC50 [6] [nM] | IC50 (D(2) dopamine receptor [7]) [nM]
CCCN(CCC)C1CCc2cccc(O)c2C1 (stereo not drawn) [8-OH-DPAT] | 810 | – | – | > 10000 | – | – | 5.2
